Data taken from ChEMBL document CHEMBL4418493, “N-hydroxyformamide compounds and compositions comprising them for use as BMP1, TLL1 and/or TLL2 inhibitors” (2018).

Key:
[1] = Reduction in mature collagen deposition levels in human cardiac fibroblasts incubated for 24 to 48 hrs by immunostaining based assay; format: functional
[2] = Reduction in PICP levels in human cardiac fibroblasts incubated for 24 to 48 hrs by ELISA; format: functional
[3] = Drug metabolism in heparinized pooled human plasma at pH 7.5 assessed as formation of (S)-2-(2-ethoxy-4-(5-((((R)-2-((R)-1-(N-hydroxyformamido)propyl)heptanamido)methyl) carbamoyl)furan-2-yl)benzamido)succinic acid at 100 to 2000 ng/ml incubated up to 4 or 24 hrs by LC-MS/MS analysis; format: ADME, cell-free; details: pH 7.5, 24 h
[4] = Drug metabolism in heparinized pooled human plasma at pH 7.5 assessed as formation of (3-ethoxy-5-(5-((((R)-2-((R)-1-(N-hydroxyformamido)propyl)heptanamido)methyl)carbamoyl) furan-2-yl)phenyl)phosphonic acid at 100 to 2000 ng/ml incubated up to 4 or 24 hrs by LC-MS/MS analysis; format: ADME, cell-free; details: pH 7.5, 24 h
[5] = Drug metabolism in heparinized pooled human plasma at pH 7.5 assessed as formation of (S)-2-(2-(carboxymethoxy)-4-(5-((((R)-2-((R)-1-(N-hydroxyformamido)propyl)heptanamido)methyl)carbamoyl)furan-2-yl)benzamido)succinic acid at 100 to 2000 ng/ml incubated up to 4 or 24 hrs by LC-MS/MS analysis; format: ADME, cell-free; details: pH 7.5, 24 h

Drug metabolism [3]	Drug metabolism [4]	Drug metabolism [5]	Compound	IC50 [1] [µM]	IC50 [2] [µM]
Metabolite_Detected			CCCCC[C@@H](C(=O)NCNC(=O)c1ccc(-c2ccc(C(=O)N[C@@H](CC(=O)O)C(=O)O)c(OCC)c2)o1)[C@@H](CC)N(C=O)OC(=O)c1ccc(OC)cc1OC(F)(F)F	< 1	< 3.98
Metabolite_Detected			CCCCC[C@@H](C(=O)NCNC(=O)c1ccc(-c2ccc(C(=O)N[C@@H](CC(=O)O)C(=O)O)c(OCC)c2)o1)[C@@H](CC)N(C=O)OC(=O)c1ccccc1C	< 1	< 3.98
	Metabolite_Detected		CCCCC[C@@H](C(=O)NCNC(=O)c1ccc(-c2cc(OCC)cc(P(=O)(O)O)c2)o1)[C@@H](CC)N(C=O)OC(=O)Nc1ccccc1		< 3.98
		Metabolite_Detected	CCCCC[C@@H](C(=O)NCNC(=O)c1ccc(-c2ccc(C(=O)N[C@@H](CC(=O)O)C(=O)O)c(OCC(=O)O)c2)o1)[C@@H](CC)N(C=O)OC(=O)c1ccc(OC)cc1C.N.N.N	< 1	< 3.98
Metabolite_Detected			CCCCC[C@@H](C(=O)NCNC(=O)c1ccc(-c2ccc(C(=O)N[C@@H](CC(=O)O)C(=O)O)c(OCC)c2)o1)[C@@H](CC)N(C=O)OC(=O)c1ccc(N2CCCC2)c(F)c1.N.N	< 1	< 3.98
	Metabolite_Detected		CCCCC[C@@H](C(=O)NCNC(=O)c1ccc(-c2cc(OCC)cc(P(=O)(O)O)c2)o1)[C@@H](CC)N(C=O)OC(=O)NC(C)(C)C		< 3.98
	Metabolite_Detected		CCCCC[C@@H](C(=O)NCNC(=O)c1ccc(-c2cc(OCC)cc(P(=O)(O)O)c2)o1)[C@@H](CC)N(C=O)OC(=O)c1ccc(CN2CCOCC2)cc1C		< 3.98
Metabolite_Detected			CCCCC[C@@H](C(=O)NCNC(=O)c1ccc(-c2ccc(C(=O)N[C@@H](CC(=O)O)C(=O)O)c(OCC)c2)o1)[C@@H](CC)N(C=O)OC(=O)c1ccc(-n2cnnc2)cc1	< 1	< 3.98
Metabolite_Detected			CCCCC[C@@H](C(=O)NCNC(=O)c1ccc(-c2ccc(C(=O)N[C@@H](CC(=O)O)C(=O)O)c(OCC)c2)o1)[C@@H](CC)N(C=O)OC(=O)c1ccccc1C(C)C	< 1	< 3.98
	Metabolite_Detected		CCCCC[C@@H](C(=O)NCNC(=O)c1ccc(-c2cc(OCC)cc(P(=O)(O)O)c2)o1)[C@@H](CC)N(C=O)OC(=O)c1ccc(OC)cc1C(C)C		< 3.98
Metabolite_Detected			CCCCC[C@@H](C(=O)NCNC(=O)c1ccc(-c2ccc(C(=O)N[C@@H](CC(=O)O)C(=O)O)c(OCC)c2)o1)[C@@H](CC)N(C=O)OC(=O)c1ccc(OC)cc1C(F)(F)F	< 1	< 3.98
	Metabolite_Detected		CCCCC[C@@H](C(=O)NCNC(=O)c1ccc(-c2cc(OCC)cc(P(=O)(O)OCc3oc(=O)oc3C)c2)o1)[C@@H](CC)N(O)C=O		
	Metabolite_Detected		CCCCC[C@@H](C(=O)NCNC(=O)c1ccc(-c2cc(OCC)cc(P(=O)(OCOC(=O)C(C)C)OCOC(=O)C(C)C)c2)o1)[C@@H](CC)N(O)C=O		
Metabolite_Detected			CCCCC[C@@H](C(=O)NCNC(=O)c1ccc(-c2ccc(C(=O)N[C@@H](CC(=O)O)C(=O)O)c(OCC)c2)o1)[C@@H](CC)N(C=O)OC(=O)NC(C)(C)c1ccccc1	< 1	< 3.98
	Metabolite_Detected		CCCCC[C@@H](C(=O)NCNC(=O)c1ccc(-c2cc(OCC)cc(P(=O)(O)O)c2)o1)[C@@H](CC)N(C=O)OC(=O)NC(C)C		< 3.98
	Metabolite_Detected		CCCCC[C@@H](C(=O)NCNC(=O)c1ccc(-c2cc(OCC)cc(P(=O)(O)O)c2)o1)[C@@H](CC)N(C=O)OC(=O)C(CC)CC		< 3.98

Drug metabolism [3]	Drug metabolism [4]	Drug metabolism [5]	Compound	IC50 [1] [µM]	IC50 [2] [µM]
	Metabolite_Detected		CCCCC[C@@H](C(=O)NCNC(=O)c1ccc(-c2cc(OCC)cc(P(=O)(O)O)c2)o1)[C@@H](CC)N(C=O)OC(=O)NC(C)(C)c1ccccc1		
Metabolite_Detected			CCCCC[C@@H](C(=O)NCNC(=O)c1ccc(-c2ccc(C(=O)N[C@@H](CC(=O)O)C(=O)O)c(OCC)c2)o1)[C@@H](CC)N(C=O)OC(=O)c1ccc(O)cc1	< 1	< 3.98
Metabolite_Detected			CCCCC[C@@H](C(=O)NCNC(=O)c1ccc(-c2ccc(C(=O)N[C@@H](CC(=O)O)C(=O)O)c(OCC)c2)o1)[C@@H](CC)N(C=O)OC(=O)c1ccc(OC)cc1F	< 1	< 3.98
Metabolite_Detected			CCCCC[C@@H](C(=O)NCNC(=O)c1ccc(-c2ccc(C(=O)N[C@@H](CC(=O)O)C(=O)O)c(OCC)c2)o1)[C@@H](CC)N(C=O)OC(=O)c1ccc(C(F)(F)F)cc1C	< 1	< 3.98
Metabolite_Detected			CCCCC[C@@H](C(=O)NCNC(=O)c1ccc(-c2ccc(C(=O)N[C@@H](CC(=O)O)C(=O)O)c(OCC)c2)o1)[C@@H](CC)N(C=O)OC(=O)NC(C)(C)C	< 1	< 3.98
Metabolite_Detected			CCCCC[C@@H](C(=O)NCNC(=O)c1ccc(-c2ccc(C(=O)N[C@@H](CC(=O)O)C(=O)O)c(OCC)c2)o1)[C@@H](CC)N(C=O)OC(=O)c1ccc(OC)cc1OC	< 1	< 3.98
	Metabolite_Detected		CCCCC[C@@H](C(=O)NCNC(=O)c1ccc(-c2cc(OCC)cc(P(=O)(O)O)c2)o1)[C@@H](CC)N(C=O)OC(=O)c1ccccc1O		< 3.98
Metabolite_Detected			CCCCC[C@@H](C(=O)NCNC(=O)c1ccc(-c2ccc(C(=O)N[C@@H](CC(=O)OCOC(=O)C(C)C)C(=O)OCOC(=O)C(C)C)c(OCC)c2)o1)[C@@H](CC)N(O)C=O	< 1	< 3.98
	Metabolite_Detected		CCCCC[C@@H](C(=O)NCNC(=O)c1ccc(-c2cc(OCC)cc(P(=O)(O)O)c2)o1)[C@@H](CC)N(C=O)OC(=O)c1ccc2c(c1)OCCN2C		< 3.98
	Metabolite_Detected		CCCCC[C@@H](C(=O)NCNC(=O)c1ccc(-c2cc(OCC)cc(P(=O)(O)O)c2)o1)[C@@H](CC)N(C=O)OC(=O)c1ccc(N2CCOCC2)cc1		
Metabolite_Detected			CCCCC[C@@H](C(=O)NCNC(=O)c1ccc(-c2ccc(C(=O)N[C@@H](CC(=O)O)C(=O)O)c(OCC)c2)o1)[C@@H](CC)N(C=O)OC(=O)OC(C)(C)C	< 1	< 3.98
Metabolite_Detected			CCCCC[C@@H](C(=O)NCNC(=O)c1ccc(-c2ccc(C(=O)N[C@@H](CC(=O)O)C(=O)O)c(OCC)c2)o1)[C@@H](CC)N(C=O)OC(=O)c1cccc(-n2cccc2)c1	< 1	< 3.98
Metabolite_Detected			CCCCC[C@@H](C(=O)NCNC(=O)c1ccc(-c2ccc(C(=O)N[C@@H](CC(=O)O)C(=O)O)c(OCC)c2)o1)[C@@H](CC)N(C=O)OC(=O)c1c(C)ccnc1C	< 1	< 3.98
	Metabolite_Detected		CCCCC[C@@H](C(=O)NCNC(=O)c1ccc(-c2cc(OCC)cc(P(=O)(O)O)c2)o1)[C@@H](CC)N(C=O)OC(=O)c1c(C)cccc1F		
	Metabolite_Detected		CCCCCCCCC(=O)ON(C=O)[C@H](CC)[C@@H](CCCCC)C(=O)NCNC(=O)c1ccc(-c2cc(OCC)cc(P(=O)(O)O)c2)o1		
	Metabolite_Detected		CCCCC[C@@H](C(=O)NCNC(=O)c1ccc(-c2cc(OCC)cc(P(=O)(O)O)c2)o1)[C@@H](CC)N(C=O)OC(=O)c1ccc(CN2CCOCC2)cc1		< 3.98

Compound	Drug metabolism [3]	Drug metabolism [4]	Drug metabolism [5]	IC50 [1] [µM]	IC50 [2] [µM]
CCCCC[C@@H](C(=O)NCNC(=O)c1ccc(-c2cc(OCC)cc(P(=O)(O)O)c2)o1)[C@@H](CC)N(C=O)OC(=O)c1ccc2c(c1)N(C)CCO2.N.N		Metabolite_Detected			< 3.98
CCCCC[C@@H](C(=O)NCNC(=O)c1ccc(-c2cc(OCC)cc(P(=O)(O)O)c2)o1)[C@@H](CC)N(C=O)OC(=O)c1ccc(N2CCCC2)cc1.N.N		Metabolite_Detected			< 3.98
CCCCC[C@@H](C(=O)NCNC(=O)c1ccc(-c2cc(OCC)cc(P(=O)(O)O)c2)o1)[C@@H](CC)N(C=O)OC(=O)c1ccc(OC)cc1C.N.N		Metabolite_Detected			< 3.98
CCCCC[C@@H](C(=O)NCNC(=O)c1ccc(-c2cc(OCC)cc(P(=O)(O)O)c2)o1)[C@@H](CC)N(C=O)OC(=O)c1ccc(N2CCCC2=O)cc1.N.N		Metabolite_Detected			< 3.98
CCCCC[C@@H](C(=O)NCNC(=O)c1ccc(-c2cc(OCC)cc(P(=O)(O)O)c2)o1)[C@@H](CC)N(C=O)OC(=O)c1ccc(-n2cccc2)cc1.N.N		Metabolite_Detected			
CCCCC[C@@H](C(=O)NCNC(=O)c1ccc(-c2cc(OCC)cc(P(=O)(O)O)c2)o1)[C@@H](CC)N(C=O)OC(=O)c1ccc(N2CCOCC2)cc1C.N.N		Metabolite_Detected			< 3.98
CCCCC[C@@H](C(=O)NCNC(=O)c1ccc(-c2cc(OCC)cc(P(=O)(O)O)c2)o1)[C@@H](CC)N(C=O)OC(=O)c1c(C)cccc1OCOP(=O)(O)O.N.N.N.N		Metabolite_Detected			< 3.98
CCCCC[C@@H](C(=O)NCNC(=O)c1ccc(-c2cc(OCC)cc(P(=O)(O)O)c2)o1)[C@@H](CC)N(C=O)OC(=O)c1ccc(N2CCCC2)c(F)c1.N.N		Metabolite_Detected			< 3.98
